Source: the supplement of paper PMC10307832

Assays:
Test in all cases: relative viability (nuclei count vs DMSO), 5 days (fraction); higher = more cells survive
[1] = compound: Cc1cnc(CNC(=O)c2c(=O)c3ccc(N4CCCN(C)CC4)nc3n3c2sc2ccccc23)cn1 [CX-5461] + Cc1nc(NC(=O)N2CCC[C@H]2C(N)=O)sc1-c1ccnc(C(C)(C)C(F)(F)F)c1 [Alpelisib] (partner 2 µM)
How it was run: (§1)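 Lung cancer cell lines were seeded in 1536-well plates and dosed by pin tool the next day, with either a single drug or a fixed anchor-drug dose combined with five library-drug doses (not always all listed) spaced in √10 steps. Five days later, one step fixed the cells and stained their nuclei (final 0.05% Triton X-100, 1% formaldehyde, 1 ug/ml Hoechst), and nuclei were counted on 4× images. Relative viability is the nuclei count in treated wells divided by the count in vehicle wells, and each value is the median of duplicate plates.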

[2] = compound: O=C(Nc1cc(C(F)(F)F)cc(C(F)(F)F)c1)c1cc(Cl)ccc1O [IMD-0354] + N=C(N)NC(=N)NCCc1ccccc1 [Phenformin] (partner 250 µM)
How it was run: as §1

[3] = compound: Cc1cnc(CNC(=O)c2c(=O)c3ccc(N4CCCN(C)CC4)nc3n3c2sc2ccccc23)cn1 [CX-5461] + Cc1nc(Nc2ncc(C(=O)Nc3c(C)cccc3Cl)s2)cc(N2CCN(CCO)CC2)n1 [Dasatinib] (partner 0.075 µM)
How it was run: as §1

[4] = compound: O=C(Nc1cc(C(F)(F)F)cc(C(F)(F)F)c1)c1cc(Cl)ccc1O [IMD-0354] + COc1cc2c(Oc3ccc(NC(=O)C4(C(=O)Nc5ccc(F)cc5)CC4)cc3F)ccnc2cc1OCCCN1CCOCC1 [Foretinib] (partner 0.25 µM)
How it was run: as §1

Row | Cell Line | relative viability ([1]; first compound 0.01 µM) | relative viability ([1]; first compound 0.03162 µM) | relative viability ([1]; first compound 0.1 µM) | relative viability ([1]; first compound 0.3162 µM) | relative viability ([1]; first compound 1 µM) | relative viability ([2]; first compound 0.04 µM) | relative viability ([2]; first compound 0.1265 µM) | relative viability ([2]; first compound 0.4 µM) | relative viability ([2]; first compound 1.265 µM) | relative viability ([2]; first compound 4 µM) | relative viability ([3]; first compound 0.01 µM) | relative viability ([3]; first compound 0.03162 µM) | relative viability ([3]; first compound 0.1 µM) | relative viability ([3]; first compound 0.3162 µM) | relative viability ([3]; first compound 1 µM) | relative viability ([4]; first compound 0.04 µM) | relative viability ([4]; first compound 0.1265 µM) | relative viability ([4]; first compound 0.4 µM) | relative viability ([4]; first compound 1.265 µM) | relative viability ([4]; first compound 4 µM)
1 | NCI-H23 | 0.616 | 0.865 | 0.717 | 0.689 | 0.586 | 0.811 | 0.81 | 0.313 | 0.198 | 0.189 | 0.75 | 0.892 | 0.834 | 1.03 | 0.5 | 0.969 | 0.955 | 0.49 | 0.265 | 0.232
2 | NCI-H322M | 0.813 | 0.938 | 0.846 |  | 0.807 | 0.865 | 0.796 | 0.378 | 0.277 | 0.375 | 0.249 | 0.243 | 0.267 | 0.219 | 0.267 | 1.12 | 0.907 | 0.716 | 0.31 | 0.402
3 | NCI-H358 | 0.997 | 0.883 | 0.413 | 0.593 | 0.27 | 0.348 | 0.241 | 0.17 | 0.121 | 0.0927 | 0.146 | 0.148 | 0.176 | 0.0999 | 0.12 | 0.753 | 0.828 | 0.372 | 0.163 | 0.126
4 | NCI-H441 | 0.76 | 0.876 | 0.694 | 0.727 | 0.438 | 0.79 | 0.693 | 0.45 | 0.177 | 0.262 | 0.593 | 0.486 | 0.747 | 0.419 | 0.364 | 0.919 | 0.872 | 0.478 | 0.28 | 0.272
5 | NCI-H460 | 0.484 | 0.489 | 0.0913 | 0.402 | 0.0154 | 0.514 | 0.365 | 0.103 | 0.0203 | 0.0155 | 0.554 | 0.435 | 0.263 | 0.516 | 0.0464 | 0.988 | 0.858 | 0.366 | 0.0865 | 0.026
6 | NCI-H520 | 0.841 | 0.945 | 0.856 | 0.712 | 0.619 | 0.738 | 0.51 | 0.299 | 0.168 | 0.194 | 0.164 | 0.165 | 0.199 | 0.166 | 0.203 | 1.04 | 0.842 | 0.458 | 0.469 | 0.2
7 | NCI-H596 | 0.509 | 0.494 | 0.52 | 0.524 | 0.441 | 0.852 | 0.748 | 0.547 | 0.898 | 0.318 | 0.613 | 0.639 | 0.596 | 0.623 | 0.473 | 0.901 | 0.844 | 0.634 | 0.917 | 0.307
8 | NCI-H647 | 1.29 | 1.22 | 1.06 | 1.27 | 0.211 | 0.784 | 0.376 | 0.283 | 0.129 | 0.0531 | 0.18 | 0.175 | 0.161 | 0.162 | 0.0641 | 1.57 | 1.27 | 0.426 | 0.554 | 0.148
9 | NCI-H650 | 1.1 | 1.16 | 1.18 | 1.16 | 0.977 | 0.448 | 0.451 | 0.371 | 0.234 | 0.2 | 0.423 | 0.431 | 0.448 | 0.482 | 0.389 | 1.07 | 0.961 | 0.832 | 0.515 | 0.234
10 | NCI-H661 | 0.805 | 0.674 | 0.876 |  | 0.588 | 0.268 | 0.249 | 0.224 | 0.198 | 0.232 | 1.06 | 0.863 | 0.9 |  | 0.4 | 1.06 | 1.01 | 0.681 | 0.295 | 0.24
11 | NCI-H727 | 0.606 | 0.597 | 0.547 | 0.611 | 0.592 | 0.483 | 0.407 | 0.426 | 0.307 | 0.402 | 0.324 | 0.361 | 0.253 | 0.377 | 0.31 | 0.94 | 0.869 | 0.659 | 0.711 | 0.477
12 | NCI-H838 | 1 | 1.05 | 1.06 | 0.709 | 0.896 | 0.685 | 0.448 | 0.358 | 0.234 | 0.207 | 0.283 | 0.292 | 0.38 | 0.241 | 0.243 | 1.08 | 0.925 | 0.463 | 0.579 | 0.403
13 | NCI-H1355 | 0.867 | 0.82 | 0.928 | 0.758 | 0.878 | 0.437 | 0.415 | 0.432 | 0.24 | 0.236 | 0.81 | 0.792 | 0.665 | 0.449 | 0.389 | 1.11 | 0.943 | 0.646 | 0.908 | 0.298
14 | NCI-H1395 | 1.31 | 0.935 | 0.897 | 0.704 | 0.561 | 0.489 | 0.452 | 0.382 | 0.313 | 0.267 | 0.402 | 0.414 | 0.418 | 0.39 | 0.367 | 1.08 | 0.969 | 0.98 | 0.449 | 0.306
15 | NCI-H1437 | 0.979 | 0.941 |  | 0.913 | 0.801 | 0.317 | 0.279 | 0.195 | 0.15 | 0.2 | 0.434 | 0.373 | 0.431 | 0.32 | 0.368 | 1.34 | 1.16 | 0.624 | 0.424 | 0.251
16 | NCI-H1563 | 0.903 | 0.85 | 0.899 | 0.901 | 0.489 | 0.688 | 0.622 | 0.53 | 0.329 | 0.37 | 0.461 | 0.426 | 0.464 | 0.444 | 0.444 | 1.06 | 0.936 | 0.837 | 0.388 | 0.44
